A short description of series [1]: Ligand challenge, equilibrium constant Kcomp of [Gd(DTPA)(H2O)]2− vs. L. The settings on record: for Kcomp [Gd(DTPA)(H2O)]^2- vs. L pH 4 / Kcomp, [Gd(DTPA)(H2O)]^2- vs. L pH 7.4: calculated from literature thermodynamic data. The class given is physicochemical. The procedure: As a means of assessing thermodynamic stability relative to other Gd(III)-complexes, [Gd(CyPic3A)(H2O)2]^− was challenged with DTPA in pH 7.4 25 mM Tris buffer. […] From this information it was possible to deduce equilibrium constants (Kcomp) for the competition reaction described in Equation 5,^31 where L=DTPA and L′=challenging chelator.
(§1) Equilibration of each solution was monitored by LC-MS. Relative distributions of [Gd(CyPic3A)(H2O)2]^− and CyPic3A were determined by integrating the corresponding absorbance traces at 280 nm. […] Kcomp values determined between [Gd(DTPA)(H2O)]^2− and various ligands were determined from conditional formation constants (Kcond)^4 values taken from the literature.^6-16 Direct comparisons were only made between Kcond values determined under identical conditions.

The nature of series [2]: Ligand challenge, equilibrium constant Kcomp of MS-325 vs. L. The class given is physicochemical. The procedure: as §1
For series [3] the following is noted: Zn(II) challenge of the Gd(III) complex of L; literature (ref 11); cited from earlier work.
Series [4] can be described thus: Relaxometry of [Gd(CyPic3A)(H2O)2]− in different media. It counts as physicochemical. The procedure: The relaxivity of [Gd(CyPic3A)(H2O)2]^− is consistent with two inner-sphere water ligands. At 310 K in pH 7.4 50 mM HEPES buffer, r1=5.70 mM^−1 s^−1 at 1.41 T (7.53 mM^−1s^−1 at 298 K). This is 75% higher than [Gd(DTPA)(H2O)]^2− measured under these conditions (see below for detailed table of r1 values). To probe the effects of potentially coordinating anions, nwas measured in the presence of 20 equiv. carbonate or L-lactate and also in 25 mM phosphate buffer (pH 7.4).
Relaxivity measurements were performed on a Bruker mq60 or Bruker mq20 Minispec at 1.41 T and 0.47 T, respectively, and 37° C. Longitudinal (T1) relaxation was acquired via an inversion recovery experiment on 10 inversions of duration ranging between 0.05×T1 and 5×T1. Relaxivity (r1) was determined from the slope of a plot of 1/T1 vs. [Gd] for at least 4 concentrations of Gd(III). The transverse (T2) relaxation times of ^17O were acquired at 500 MHz using a CPMG pulse sequence at temperatures ranging from 278 to 368 K. Reduced relaxation rates (1/T2r) were calculated by dividing the [Gd(CyPic3A)(H2O)2]^− imparted increase in 1/T2 relative to neat H2O at pH 3 by the mole fraction of coordinated water molecules.

Series [5] in a line: Kinetic inertness: Zn(II) transmetallation in phosphate buffer, followed by 1/T1. It counts as physicochemical. The source says:
Kinetic inertness was also taken into account in the evaluation of potential probes. In this regard, [Gd(CyPic3A)(H2O)2]^− was challenged with 1 equiv. [ZnPO4]^− as a slurry in pH 7.0 phosphate buffer at 310 K (see below). Several clinically utilized Gd(III) complexes have been benchmarked relative to one another in this manner.^37 As Gd(III) replaced by Zn(II) precipitates from the solution as GdPO4, the relaxation rate 1/T1 decreases. In this method, the time required to reach 80% of the initial 1/T1 value was utilized as an index of kinetic inertness.
Modified conditions of Muller and co-workers were used for this experiment.^11,12 Solutions containing 2.5 mM [Gd(CyPic3A)(H2O)2]^− and 2.5 mM Zn(OTf)2 were combined in pH 7.0 phosphate buffer (50 mM) and placed in an incubator shaker set to 310 K. Progress of the transchelation was monitored via the decrease in 1/T1 with time. Prior to measurement, aliquots were placed in small glass inserts and centrifuged to bring all insoluble material to the bottom so as not to interfere with the measurement.

For series [6] the following is noted: buffer, pH 3.
Description: For comparison, we also measured transchelation from the approved contrast agents [Gd(HP-DO3A)(H2O)] (ProHance, gadoteridol) and [Gd(DTPA)(H2O)]^2− (Magnevist, gadopentetate). […] We estimated half-times for these transchelations (time to 50% of the equilibrium value).
Stock solutions of MS-325-L and GdL1, Gd2L2 and Gd3L3 were prepared in 50 mM citrate buffer at pH 3.0. MS-325-L was added to solutions of the Gd complexes and incubated at 37° C. The final concentrations of the metal complexes were 0.1 mM, while the concentration of MS-325-L was adjusted according to the amounts of Gd complexes per metallopeptide present. A 10 μL aliquot was removed for HPLC analysis and analyzed while the remainder of the solution was incubated at 37° C.
The conditions of series [7]: cited from earlier work.
The conditions of series [8]: hydration state; literature (superscript refs); cited from earlier work.
The nature of series [9]: Relaxivity of Gd(DOTAla) metallopeptides and reference agents (T1 inversion recovery, 37° C.). It counts as physicochemical. On the procedure:
Main numbers are given per Gd, numbers in parentheses are per molecule values. All numbers were determined at 37° C. using an inversion recovery sequence at concentrations ranging from 0.05 to 0.6 mM/Gd. Table 4 in Example 2 further expands the data of Table 1.
Per Gd relaxivities were determined by measuring T1 at 37° C. using 20, 60, 200, 400 and 500 MHz spectrometers. Relaxivities for MS-325 (with and without the presence of HSA) as a reference compound with a long τR and [Gd(HP-DO3A)(H2O)] as a reference for very short τR were also measured, and all the relaxivity data is tabulated in Table 4, together with results obtained from literature for the compounds with similar estimated τR. […] Additional rigidity through cyclization seems to provide only minor relaxivity increase for the dimeric and trimeric systems (Gd2C2 and Gd3C3).
Measurement of relaxivity. Longitudinal relaxation times T1, were measured on Bruker Minispecs mq20 (0.47 T) and mq60 (1.41 T), a Bruker Bioscan horizontal bore 4.7 T, 9.4 T and 11.7 T Varian NMR spectrometers. T1 was measured by using an inversion recovery method with 10 inversion time values ranging from 0.05×T1 to 5×T1. Relaxivity was calculated from a linear plot of 3 or 4 different concentrations (ranging from 0.01 to 0.5 mM, depending on amount of compound isolated) versus the corresponding inverse relaxation times. All samples were measured at 37° C. using either the internal temperature control of the instrument (0.47, 1.41, 9.4 and 11.7 T) or a warm air blower (4.7 T). MS-325/HSA was prepared in a 4.5% w/v solution of HSA (0.66 mM) in PBS. The MS-325 concentration (in presence of HSA) ranged from 0.05 to 0.15 mM.

The conditions of series [10]: literature (refs 37, 38), cited from earlier work.
A short description of series [11]: Ligand challenge, equilibrium constant Kcomp of [Gd(DTPA)(H2O)]2− vs. L. The class given is physicochemical. The settings on record: obtained through ligand challenge.
[12] abbreviates: calculated from literature thermodynamic data.
[13] abbreviates: 0.47 T, 310 K, literature (superscript refs).
The mark [14] stands for this setting: obtained through ligand challenge.

Where two headings read alike, the source gives them in different places.

`O=C(O)CN(CCN(CC(=O)O)C[C@H](COP(=O)(O)OC1CCC(c2ccccc2)(c2ccccc2)CC1)N(CC(=O)O)CC(=O)O)CC(=O)O`: the “Kcomp [Gd(DTPA)(H2O)]^2- vs. L pH 4” value in [1] is 0.57^5. The “Kcomp, [Gd(DTPA)(H2O)]^2- vs. L pH 7.4” value in [1] (pH 7.4) is reported as 2.88^5. Further, in series [2] (setting [12]), the “Kcomp MS-325 vs. L pH 4” value is 1 and the “Kcomp MS-325 vs. L pH 7.4” value was 1. The “Time to 80% r1 (min)” value in series [3] is listed as 3800^11 min.
`O=C(O)CN1CCNCCN(CC(=O)O)CCN(CC(=O)O)CC1` [DO3A]: the “Kcomp [Gd(DTPA)(H2O)]^2- vs. L pH 4” value in series [1] is 0.00048^5,6. In [1] (pH 7.4), the “Kcomp, [Gd(DTPA)(H2O)]^2- vs. L pH 7.4” value is 0.0005^5,6. Besides, in series [2] (setting [12]), the “Kcomp MS-325 vs. L pH 4” value is on record as 0.00046^5,6 and the “Kcomp MS-325 vs. L pH 7.4” value is on record as 0.00017^5,6. In addition, the “Time to 80% r1 (min)” value in series [3] is given as “inert^11”.
On to `CC(O)CN1CCN(CC(=O)O)CCN(CC(=O)O)CCN(CC(=O)O)CC1` (stereo not shown) [HP-DO3A], for which the “Kcomp [Gd(DTPA)(H2O)]^2- vs. L pH 4” value in [1] is given as 0.22^6. Moreover, the “Kcomp, [Gd(DTPA)(H2O)]^2- vs. L pH 7.4” value in series [1] (pH 7.4) is 0.19^6. For the same molecule, in series [2] (setting [12]), the “Kcomp MS-325 vs. L pH 4” value is reported as 0.16^5,6 and the “Kcomp MS-325 vs. L pH 7.4” value is listed as 0.07^5,6. The “Time to 80% r1 (min)” value in series [3] is recorded as “inert^11”.
As to `O=C([O-])CN(CCN(CC(=O)[O-])CC(=O)O)CCN(CC(=O)[O-])CC(=O)O.[Gd+3]` [[Gd(DTPA)(H2O)]^2−, gadopentetate], in [4], the “r1 1.41 T 310K” value was found to be 3.26 mM⁻¹ s⁻¹. The same molecule showed a r1 in [4] (1.41 T, 310 K, pH 7.4 50 mM HEPES buffer) of 3.26 mM⁻¹ s⁻¹. Further, the “time to 80% of the initial 1/T1” value in series [5] (1 equiv. Zn(II), pH 7.0 phosphate buffer, 310 K) amounted to 383 min. Further, in series [6], the “t1/2 [h], Gd transchelation to MS-325” value was found to be 0.42 ± 0.18 h. For the same molecule, the “r1 0.47 T 298K” value in series [7] (0.47 T, 298 K, literature (superscript refs)) is on record as 4.3^16 mM^−1s^−1. For the same molecule, the “r1 0.47 T 310K” value in series [7] (setting [13]) is 3.4^17 mM^−1s^−1. In series [8], the q is reported as 1^16.
With `CC(O)CN1CCN(CC(=O)[O-])CCN(CC(=O)[O-])CCN(CC(=O)[O-])CC1.[Gd+3]` (stereo not shown) [[Gd(HP-DO3A)(H2O)], gadoteridol, reference compound], the “Relaxivity per Gd, 20 MHz” value in series [9] (20 MHz) stood at 4.3 mM⁻¹ s⁻¹. Also, in [9] (60 MHz), the “Relaxivity per Gd, 60 MHz” value is 3.2 mM⁻¹ s⁻¹. Moreover, in [9] (200 MHz), the “Relaxivity per Gd, 200 MHz” value was 3.6 mM⁻¹ s⁻¹. In addition, the “Relaxivity per Gd, 400 MHz” value in series [9] (400 MHz (9.4 T)) was 3.0 mM⁻¹ s⁻¹. The “Relaxivity per Gd, 500 MHz” value in [9] (500 MHz) turned out to be 2.9 mM⁻¹ s⁻¹. Also, the “r1 [0.47 T], per Gd” value in series [9] (per Gd, 0.47 T) came to 4.33 mM⁻¹ s⁻¹. Further, in [9] (per Gd, 1.4 T), the “r1 [1.4 T], per Gd” value stood at 3.21 mM⁻¹ s⁻¹. Also, in series [9] (per Gd, 9.4 T), the “r1 [9.4 T], per Gd” value is 3.03 mM⁻¹ s⁻¹. Besides, in series [9] (per Gd, 11.7 T), the “r1 [11.7 T], per Gd” value came out at 2.94 mM⁻¹ s⁻¹. For the same molecule, the “t1/2 [h], Gd transchelation to MS-325” value in series [6] is 91 ± 6 h. Further, in series [7] (setting [13]), the “r1 0.47 T 310K” value is listed as 3.1^17 mM^−1s^−1. Also, in [7] (cell says 1.5 T, 310 K, literature (ref 17)), the “r1 1.41 T 310K” value is on record as 2.9 (1.5 T)^17 mM^−1s^−1. Moreover, the q in series [8] is listed as 1^16.
Take Gd(DO3A-N-α-aminopropionate) [F]: the “ΔH^‡” value in [10] (activation enthalpy of water exchange) is 4.57 kcal/mol. The “^310kex × 10^6 (s^−1)” value in [10] (water exchange rate at 310 K) is on record as 42 × 10^6 s^−1. Also, the “^310 TM (ns)” value in series [10] (water residency time at 310 K (37° C.)) is 24 ns.
For the molecule “N-((6-methylpicol-2-yl)methyl)-N,N′,N′-triacetate-trans-1,2-diaminocyclohexane [CyPic3A]”, the “affinity for Gd(III) lower than DTPA” value in [1] (pH 7.4) is “about 5 fold”. Further, in series [5] (Zn(II) challenge of the Gd(III) complex of L, this work), the “Time to 80% r1” value is 95 min. Further, in series [2] (setting [14]), the “Kcomp MS-325 vs. L pH 4” value amounted to 0.031 and the “Kcomp MS-325 vs. L pH 7.4” value is listed as 0.56. In addition, in [11], the “Kcomp [Gd(DTPA)(H2O)]^2- vs. L pH 4” value is 0.18.

These data come from patent US20150297761A1, “PEPTIDIC STRUCTURES INCORPORATING AN AMINO ACID METAL COMPLEX AND APPLICATIONS IN MAGNETIC RESONANCE IMAGING” (THE GENERAL HOSPITAL CORPORATION, priority 2012, published 2015).
